The source made the active and inactive calls.
How the values were obtained:
[1] = biological target: Polyadenylate-binding protein 1 (Homo sapiens, UniProt P11940); assay: MLLE binding blockers, Cy5 peptide tracer – biochemical, fluorescence polarization, Cy5-PAM2 peptide, secondary, miRNA deadenylation inhibitor project, dose response (AID 602260); assay type: functional; details: read-out: IC50_Mean
[2] = biological target: T1, Histone-lysine N-methyltransferase NSD2 (Homo sapiens, UniProt O96028); assay type: biochemical
T1 sequence (O96028 whole entry): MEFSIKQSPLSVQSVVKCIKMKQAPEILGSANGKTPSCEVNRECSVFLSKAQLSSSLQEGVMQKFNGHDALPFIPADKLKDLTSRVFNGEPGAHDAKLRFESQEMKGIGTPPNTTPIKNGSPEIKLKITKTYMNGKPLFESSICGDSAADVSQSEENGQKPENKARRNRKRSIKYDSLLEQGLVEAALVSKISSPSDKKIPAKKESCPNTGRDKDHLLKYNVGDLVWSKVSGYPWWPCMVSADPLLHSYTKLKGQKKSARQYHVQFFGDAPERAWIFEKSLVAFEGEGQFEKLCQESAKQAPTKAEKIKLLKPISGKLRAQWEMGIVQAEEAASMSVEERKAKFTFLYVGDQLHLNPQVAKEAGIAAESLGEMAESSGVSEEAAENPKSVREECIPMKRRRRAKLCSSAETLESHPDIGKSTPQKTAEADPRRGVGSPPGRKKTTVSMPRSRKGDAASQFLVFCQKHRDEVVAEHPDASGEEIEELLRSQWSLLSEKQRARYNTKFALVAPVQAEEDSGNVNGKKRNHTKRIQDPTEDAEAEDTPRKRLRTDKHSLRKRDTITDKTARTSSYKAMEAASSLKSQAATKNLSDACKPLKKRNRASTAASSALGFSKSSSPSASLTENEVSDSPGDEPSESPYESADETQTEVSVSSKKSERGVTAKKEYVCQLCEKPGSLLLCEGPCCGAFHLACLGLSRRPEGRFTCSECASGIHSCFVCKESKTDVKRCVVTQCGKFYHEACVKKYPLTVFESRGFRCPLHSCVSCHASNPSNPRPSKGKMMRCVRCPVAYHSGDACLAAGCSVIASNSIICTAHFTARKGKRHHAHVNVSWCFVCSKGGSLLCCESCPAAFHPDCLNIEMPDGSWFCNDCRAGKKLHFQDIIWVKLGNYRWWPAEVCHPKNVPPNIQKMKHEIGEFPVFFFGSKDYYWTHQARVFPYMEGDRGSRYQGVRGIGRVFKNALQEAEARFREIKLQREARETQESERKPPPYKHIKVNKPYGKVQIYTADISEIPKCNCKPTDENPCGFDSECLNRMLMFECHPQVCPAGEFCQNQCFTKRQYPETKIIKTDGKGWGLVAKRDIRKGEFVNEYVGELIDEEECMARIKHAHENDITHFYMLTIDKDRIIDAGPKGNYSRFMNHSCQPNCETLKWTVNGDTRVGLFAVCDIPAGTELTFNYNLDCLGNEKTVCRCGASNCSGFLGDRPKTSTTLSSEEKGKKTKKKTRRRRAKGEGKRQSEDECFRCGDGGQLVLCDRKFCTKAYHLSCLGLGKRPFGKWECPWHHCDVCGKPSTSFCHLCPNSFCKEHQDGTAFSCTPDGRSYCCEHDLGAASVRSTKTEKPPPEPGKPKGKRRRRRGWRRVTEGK

Beta-galactosidase = Beta-galactosidase (Escherichia coli, UniProt Q8VNN2); assay type: functional
[3] = biological target: T2, High affinity choline transporter 1 (Homo sapiens, UniProt Q9GZV3); assay: human choline transporter blockers, potency – cell-based, 5-point CRC, membrane potential dye, dose response (AID 504840); assay type: functional
T2 sequence (Q9GZV3 whole entry): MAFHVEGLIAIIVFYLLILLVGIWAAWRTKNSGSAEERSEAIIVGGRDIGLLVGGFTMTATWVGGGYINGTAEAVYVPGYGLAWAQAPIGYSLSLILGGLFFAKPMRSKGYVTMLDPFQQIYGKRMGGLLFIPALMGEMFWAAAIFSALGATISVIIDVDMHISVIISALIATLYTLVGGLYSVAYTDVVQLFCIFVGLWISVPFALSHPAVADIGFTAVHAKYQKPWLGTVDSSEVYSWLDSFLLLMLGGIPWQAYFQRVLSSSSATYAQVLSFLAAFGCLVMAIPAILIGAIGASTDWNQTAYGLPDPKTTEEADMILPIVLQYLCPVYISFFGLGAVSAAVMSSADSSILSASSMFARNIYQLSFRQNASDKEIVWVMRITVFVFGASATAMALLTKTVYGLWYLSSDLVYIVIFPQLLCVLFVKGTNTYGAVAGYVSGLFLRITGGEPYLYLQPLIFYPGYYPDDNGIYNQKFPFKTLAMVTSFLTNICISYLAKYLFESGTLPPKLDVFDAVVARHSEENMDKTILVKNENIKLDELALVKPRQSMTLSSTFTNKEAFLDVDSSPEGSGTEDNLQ

[4] = viability loss in THP-1 monocytes – THP-1 cells, cytotoxicity control for Vif-APOBEC3G degradation inhibitor project, dose response (AID 1117359); assay type: functional; details: THP-1

Beta-galactosidase, sequence (Q8VNN2 whole entry): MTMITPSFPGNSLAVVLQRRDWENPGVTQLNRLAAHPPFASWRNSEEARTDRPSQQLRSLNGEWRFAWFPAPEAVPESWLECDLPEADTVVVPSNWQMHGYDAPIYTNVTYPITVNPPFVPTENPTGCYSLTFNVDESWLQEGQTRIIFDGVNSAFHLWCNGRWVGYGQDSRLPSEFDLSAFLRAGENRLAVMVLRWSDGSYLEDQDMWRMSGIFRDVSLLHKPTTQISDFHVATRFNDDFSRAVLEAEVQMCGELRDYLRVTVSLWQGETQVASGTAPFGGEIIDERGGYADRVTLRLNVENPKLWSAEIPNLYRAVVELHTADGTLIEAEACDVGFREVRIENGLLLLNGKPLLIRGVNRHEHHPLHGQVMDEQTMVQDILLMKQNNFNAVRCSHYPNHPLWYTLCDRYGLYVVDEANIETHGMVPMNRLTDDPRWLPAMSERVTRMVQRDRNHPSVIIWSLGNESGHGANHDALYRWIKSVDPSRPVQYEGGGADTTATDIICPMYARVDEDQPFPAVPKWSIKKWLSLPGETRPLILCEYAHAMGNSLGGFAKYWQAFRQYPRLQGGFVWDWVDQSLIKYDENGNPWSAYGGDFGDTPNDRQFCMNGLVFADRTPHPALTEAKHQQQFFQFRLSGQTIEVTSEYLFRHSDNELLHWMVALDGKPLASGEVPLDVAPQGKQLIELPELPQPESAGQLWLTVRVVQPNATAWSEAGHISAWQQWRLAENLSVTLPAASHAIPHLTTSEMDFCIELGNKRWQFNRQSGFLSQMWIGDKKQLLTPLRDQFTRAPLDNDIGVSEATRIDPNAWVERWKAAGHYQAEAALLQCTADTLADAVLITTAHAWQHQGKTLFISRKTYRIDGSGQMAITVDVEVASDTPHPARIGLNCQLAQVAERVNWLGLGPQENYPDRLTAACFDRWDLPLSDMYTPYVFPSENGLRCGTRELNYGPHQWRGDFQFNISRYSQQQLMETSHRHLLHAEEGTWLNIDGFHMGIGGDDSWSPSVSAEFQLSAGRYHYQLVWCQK
Polyadenylate-binding protein 1, sequence (P11940 whole entry): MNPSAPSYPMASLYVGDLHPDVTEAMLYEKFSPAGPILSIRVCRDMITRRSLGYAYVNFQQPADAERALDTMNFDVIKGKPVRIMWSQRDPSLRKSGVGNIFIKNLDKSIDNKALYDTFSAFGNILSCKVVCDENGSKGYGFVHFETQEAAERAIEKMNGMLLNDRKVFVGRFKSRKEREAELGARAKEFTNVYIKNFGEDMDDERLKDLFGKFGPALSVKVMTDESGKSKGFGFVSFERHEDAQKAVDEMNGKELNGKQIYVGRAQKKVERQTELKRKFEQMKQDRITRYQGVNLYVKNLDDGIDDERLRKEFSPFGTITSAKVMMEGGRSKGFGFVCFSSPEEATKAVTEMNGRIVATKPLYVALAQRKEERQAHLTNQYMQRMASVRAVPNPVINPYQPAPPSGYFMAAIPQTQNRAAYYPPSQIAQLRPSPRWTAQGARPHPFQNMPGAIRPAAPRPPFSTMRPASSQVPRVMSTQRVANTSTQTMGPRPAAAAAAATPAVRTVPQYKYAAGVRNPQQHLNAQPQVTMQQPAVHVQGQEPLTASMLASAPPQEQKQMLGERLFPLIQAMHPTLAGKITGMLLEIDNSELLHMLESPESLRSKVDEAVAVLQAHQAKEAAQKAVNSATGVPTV

O=S(=O)(O)c1cc(O)c2cc(Nc3ccccc3)ccc2c1
IC50 [1]: > 66 µM (inactive)
AC50 [2]: 1.8 µM (active)

O=[N+]([O-])c1c(Nc2ccccc2O)cc(Cl)c2nonc12
EC50 (Beta-galactosidase): > 31.5 µM (inactive)
IC50 [3]: 13.2 µM (active)
CC50 [4]: 12.2 µM (active)
